The record followed here is patent publication US20060079453A1, “Hla binding peptides and their uses” (priority 2002, published 2006).

Like-named read-outs stand apart in the source and are kept apart here. No end group written: not given here. Bounds are passed on as bounds.

In test [1] the target is HLA-DQ DQA1*0301/B*0301 (DQ7) (Homo sapiens, UniProt P01909+P01920, A209T/C70Q/DUP78-78/E183D/F237L/G63E/I129T/K197E/L178F/L74F/L98V/Q57E/Q76R/S185I/S97I/T49S/V73L). Briefly: biochemical. The test is classed as binding.
In another test the target is HLA-DR DRB1*1501 (DR15) (Homo sapiens, UniProt P01903+P01911). Briefly: biochemical. As to conditions: DRBI *1501. In kind it is binding.
For another test, the target named is HLA-DR DRB1*0301 (DR3) (Homo sapiens, UniProt P01903+P01911, A100K/A102G/A103R/A169T/F55Y/I96L/K41T/L162R/M171V/P40S/Q125H/Q178H/Q39Y/R42S/S66N/T106N/T262R/W38E/Y61H). Briefly: biochemical. The test is classed as binding.
The target in the next test is HLA-DR DRB1*0101 (DR1) (Homo sapiens, UniProt P01903+P01911, A100R/D57E/F55L/F60I/F76Y/I96L/L162R/M171V/P40L/Q125E/R42F/V115G/Y59C). Briefly: biochemical. In kind it is binding.
For test [2], the target named is HLA-DQ DQA1*0301/B*0302 (DQ8) (Homo sapiens, UniProt P01909+P01920, A209T/A45G/C70Q/D89A/DUP78-78/E183D/E77G/F237L/G63E/H199R/I129T/K197E/L178F/L74F/L98V/Q57E/Q76R/S185I/S97I/T217I/T49S/V73L/Y58L). Briefly: biochemical.
For the next test, the target named is HLA-DR DRB3*0101 (DR52) (Homo sapiens, UniProt P01903+P79483). Briefly: biochemical. The test is classed as binding.
A further test concerns the target HLA-DR DRB1*0701 (DR7) (Homo sapiens, UniProt P01903+P01911, A100R/A102G/A103Q/D57E/D86V/E43K/F76Y/K127E/L162R/M171V/P40G/Q125H/Q99D/R33Q/R42Y/R54Q/S133A/S66F/T210M/V115G/Y107V/Y59L/Y89S). Briefly: biochemical. In kind it is binding.
Another test has as its target HLA-DR DRB5*0101 (DR51) (Homo sapiens, UniProt P01903+Q30154). The test can be described thus: biochemical. In kind it is binding.
Another test concerns the target HLA-DR DRB1*1302 (DR13) (Homo sapiens, UniProt P01903+P01911, A100E/A169T/K41T/L162R/M171V/P40S/Q125H/Q178H/Q39Y/Q99D/R42S/S66N/T262R/V115G/W38E/Y61H). Briefly: biochemical. In kind it is binding. The settings on record: DRBI *1302.
For another test, the target named is HLA-DR DRB1*0401 (DR4) (Homo sapiens, UniProt P01903+P01911, A100K/A169T/F76Y/I96L/K127E/L162R/M171V/N62H/P40V/Q125Y/R42H/S133A/S149N/S66Y/V115G/V209L/W38E). The test can be described thus: biochemical. In kind it is binding.
The next test deals with HLA-DR DRB1*0405 (DR4) (Homo sapiens, UniProt P01903+P01911, A100R/A169T/D86S/F76Y/I96L/K127E/L162R/M171V/N62H/P40V/Q125Y/R42H/S133A/S149N/S66Y/V115G/V209L/W38E). Briefly: biochemical. In kind it is binding. As to conditions: DRB1 *0405.
Another test deals with HLA-DR DRB1*1101 (DR11) (Homo sapiens, UniProt P01903+P01911, A100R/A169T/A87E/I96F/K41T/L162R/M171V/P40S/Q125H/Q178H/Q39Y/Q99D/R42S/S66Y/T262R/V115G/W38E). Briefly: biochemical. The test is classed as binding.
Test [3] addresses HLA-DQ DQA1*0501/B*0201 (DQ2) (Homo sapiens, UniProt P01909+P01920, A45G/A70V/D89A/E106A/E77G/E98D/H199R/L107V/N214S/P84L/P87L/T103K/T109R/T172A/T60S/V78E/V99I/Y58L/Y62S/Y69I/Y79F). The test can be described thus: biochemical.
The next test deals with HLA-DR DRB1*0901 (DR9) (Homo sapiens, UniProt P01903+P01911, A100R/A103E/D57H/D86V/F55Y/F60I/F76Y/I96F/K127E/L162R/M171V/P40D/Q125H/Q99R/R33Q/R42F/S133A/S66N/T210M/V115G/W38K/Y107V/Y59G/Y89S). The test can be described thus: biochemical. The test is classed as binding. The settings on record: DRB1 *0901.
The target in a further test is HLA-DR DRB4*0101 (DR53) (Homo sapiens, UniProt P01903+P13762, G164S). Briefly: biochemical. As to conditions: DRB4 *0101. In kind it is binding.
For another test, the target named is HLA-DR DRB1*0802 (DR8) (Homo sapiens, UniProt P01903+P01911, A100R/A103L/A169T/F76Y/H45Y/I96F/K41T/L162R/M171V/P40S/Q125H/Q178H/Q39Y/Q99D/R218S/R42G/S66Y/V115G/W38E). Briefly: biochemical. In kind it is binding.
The subject of another test is HLA-DR DRB5*0201. The test is classed as binding, human. The settings on record: read-out: DRB5 *0201.

Chain of HLA-DR DRB1*1302 (DR13) (P01903 26-254 limits assumed, other chains not shown): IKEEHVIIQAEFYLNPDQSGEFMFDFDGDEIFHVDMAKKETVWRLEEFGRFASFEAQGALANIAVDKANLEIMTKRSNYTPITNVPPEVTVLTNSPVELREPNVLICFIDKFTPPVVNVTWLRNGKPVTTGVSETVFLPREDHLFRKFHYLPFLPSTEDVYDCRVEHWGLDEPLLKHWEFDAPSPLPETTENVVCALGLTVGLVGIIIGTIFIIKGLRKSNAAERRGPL
Chain of HLA-DR DRB1*1101 (DR11) (P01903 26-254 limits assumed, other chains not shown): as above
Chain of HLA-DR DRB1*0301 (DR3) (P01903 26-254 limits assumed, other chains not shown): as above

For the substance GSHLVEALYLVCGER, the IC50 in [1] was over 89300 nM; at HLA-DR DRB1*1501 (DR15), 1350 nM; at HLA-DR DRB1*0301 (DR3) it was over 187000 nM; at HLA-DR DRB1*0101 (DR1) (DRB1 *0101) it was 525 nM; in test [2], 2.49 µM; against HLA-DR DRB3*0101 (DR52), over 18.7 µM. Moreover, the IC50 was 560 nM at HLA-DR DRB1*0701 (DR7) (DRB1 *0701); 29300 nM against HLA-DR DRB5*0101 (DR51) (DRB5 *0101); 8.03 µM against HLA-DR DRB1*1302 (DR13); 8290 nM against HLA-DR DRB1*0401 (DR4) (DRB1 *0401); 4.61 µM at HLA-DR DRB1*0405 (DR4); over 10500 nM on HLA-DR DRB1*1101 (DR11) (DRB1 *1101). The IC50 was 0.677 µM in [3], 5.39 µM at HLA-DR DRB1*0901 (DR9), 372 nM at HLA-DR DRB4*0101 (DR53) and over 54400 nM at HLA-DR DRB1*0802 (DR8).
In the case of LQLHVDKAVSGLRSL, the IC50 in test [1] turned out to be 88 nM; against HLA-DR DRB1*1501 (DR15), 2710 nM; on HLA-DR DRB1*0301 (DR3), 22 nM; in [2] it was 7.84 µM; on HLA-DR DRB3*0101 (DR52), 1.04 µM; on HLA-DR DRB1*0701 (DR7) (DRB1 *0701), 3210 nM. Further, the IC50 against HLA-DR DRB5*0101 (DR51) (DRB5 *0101) came to 76 nM; against HLA-DR DRB1*1302 (DR13), 0.053 µM; at HLA-DR DRB1*0401 (DR4) (DRB1 *0401), 9.7 nM; against HLA-DR DRB1*0405 (DR4), 13.6 µM; against HLA-DR DRB1*1101 (DR11) (DRB1 *1101), 910 nM; in test [3], 7.59 µM. Further, the IC50 is over 78.9 µM against HLA-DR DRB1*0901 (DR9), 31 nM against HLA-DR DRB4*0101 (DR53) and 801 nM at HLA-DR DRB1*0802 (DR8).
As for (15A)RQTTLKAAA, the IC50 was found to be 4.2 nM on HLA-DR DRB1*0101 (DR1) (read-out: DRB1 *0101); 9.5 nM on HLA-DR DRB5*0101 (DR51) (read-out: DRB5 *0101); 0.31 nM at HLA-DR DRB1*0401 (DR4) (read-out: DRB1 *0401); 1.8 nM on HLA-DR DRB1*1101 (DR11) (read-out: DRB1 *1101); 3100 nM in the test with HLA-DR DRB5*0201.
Take AAFAAAKTAAAFA: the IC50 in [1] (read-out: DQB1*0301) came to 49 nM; on HLA-DR DRB1*0101 (DR1) (read-out: DRB1 *0101), 1.3 nM; at HLA-DR DRB3*0101 (DR52) (read-out: DRB3 *0101), 20 µM; on HLA-DR DRB1*0701 (DR7) (read-out: DRB1 *0701), 67 nM; at HLA-DR DRB5*0101 (DR51) (read-out: DRB5 *0101), 25 nM; on HLA-DR DRB1*0401 (DR4) (read-out: DRB1 *0401) it was 0.19 nM. Further, the IC50 was 4.6 nM on HLA-DR DRB1*1101 (DR11) (read-out: DRB1 *1101) and 6.4 nM with HLA-DR DRB5*0201.
Take GLALLSEAVLRGQAL [GLALLSEAVLRGQAL]: the IC50 in test [1] was 107 nM; against HLA-DR DRB1*0301 (DR3), 816 nM; against HLA-DR DRB1*0101 (DR1) (DRB1 *0101), 83 nM; in test [2] it was 17 µM; on HLA-DR DRB3*0101 (DR52), over 38.2 µM; at HLA-DR DRB1*0701 (DR7) (DRB1 *0701) it was 4610 nM. Further, the IC50 on HLA-DR DRB1*1302 (DR13) is 1.22 µM; at HLA-DR DRB1*0401 (DR4) (DRB1 *0401) it was 11 nM; at HLA-DR DRB1*0405 (DR4) it was 1.44 µM; at HLA-DR DRB1*1101 (DR11) (DRB1 *1101) it was 2580 nM; in test [3], 6.74 µM; at HLA-DR DRB1*0901 (DR9) it was 15.1 µM. The IC50 against HLA-DR DRB4*0101 (DR53) came to 3.5 nM; against HLA-DR DRB1*0802 (DR8), 2000 nM.
On to YAR(15A)SQTTLKAKT, for which the IC50 on HLA-DR DRB1*0101 (DR1) (read-out: DRB1 *0101) came out at 2.4 nM; on HLA-DR DRB5*0101 (DR51) (read-out: DRB5 *0101) it was 1.4 nM; on HLA-DR DRB1*0401 (DR4) (read-out: DRB1 *0401), 0.78 nM; at HLA-DR DRB1*1101 (DR11) (read-out: DRB1 *1101), 2.5 nM; in the test on HLA-DR DRB5*0201, 48 nM.
Consider QHLCGSHLVEALYLV, for which the IC50 was 2550 nM in [1]; 48600 nM on HLA-DR DRB1*0301 (DR3); 170 nM against HLA-DR DRB1*0101 (DR1) (DRB1 *0101); 8.41 µM in [2]; 14.8 µM on HLA-DR DRB3*0101 (DR52); 86 nM against HLA-DR DRB1*0701 (DR7) (DRB1 *0701). Besides, the IC50 against HLA-DR DRB5*0101 (DR51) (DRB5 *0101) is 32000 nM; against HLA-DR DRB1*1302 (DR13) it was 7.62 µM; at HLA-DR DRB1*0401 (DR4) (DRB1 *0401), 13000 nM; against HLA-DR DRB1*0405 (DR4), 9.82 µM; on HLA-DR DRB1*1101 (DR11) (DRB1 *1101), over 10500 nM; in test [3] it was 0.359 µM. Also, the IC50 is 7.42 µM against HLA-DR DRB1*0901 (DR9), 1480 nM against HLA-DR DRB4*0101 (DR53) and over 54400 nM against HLA-DR DRB1*0802 (DR8).
Take YAR(15A)RQTTLKAAA: the IC50 on HLA-DR DRB5*0101 (DR51) (read-out: DRB5 *0101) turned out to be 0.94 nM; on HLA-DR DRB1*1101 (DR11) (read-out: DRB1 *1101) it was 1.2 nM; in the test on HLA-DR DRB5*0201, 62 nM.
